Reference: patent publication US20230126447A1, “OCULAR DRUG DEPOT FOR COMPLEMENT-MEDIATED DISORDERS” (priority 2020, published 2023)
Like-named read-outs stand apart in the source and are kept apart here.

Experiment: Ocular tissue and plasma pharmacokinetics, 15 mg/kg single and BID oral, Dutch Belted rabbits (Example 3/5)
Type: in vivo
Conditions: for concentration at 0 h: Day 15, 0 h
Experimental: Study design including group designation and dose levels are outlined in Table 4. […] Fifteen Dutch Belted and 5 New Zealand White rabbits were used as un-dosed controls. […] The dose volume was 5 mL/kg/dose for all groups. Safety was assessed with toxicological and ophthalmic examinations including slit lamp biomicroscopy, indirect ophthalmoscopy, rebound tonometry, and ultrasonic corneal pachymetry.
Analyst® software (Version 1.6.2) was used to capture the LC-MS/MS data and integrate the peak areas. Calibration standards and QCs were prepared in a blank solution of 75%:25% acetonitrile:water (v:v), ranging from 10 ng/mL to 10,000 ng/mL. Matrix matched standard and QC samples were prepared by mixing 2 μL of standard or QC sample above with 18 μL of appropriate ocular tissue or plasma. The final calibration standards ranged from 1 ng/mL to 1000 ng/mL. All plasma, retina, choroid-RPE, optic nerve, and vitreous humor samples were analyzed in a single run. Iris-ciliary body samples were analyzed in two runs due to a need for sample dilution. […] Dilution QCs were prepared at 5000 ng/mL where appropriate. Two sets of standards were used to bracket the analytical run at the beginning and end of the run. Three sets of QCs were included the analytical runs. All concentrations in ocular matrices are reported as ng/g based on the assumed density of 1 g/mL.
1, 6, 24, 96, 168, and 240 hours post-dose on Day 15, with the eyes collected at the same time as blood sampling. A single blood sample was taken from Groups 4 and 5 at sacrifice. Plasma, vitreous humor (VH), retina, choroid-retina pigmented epithelium (Choroid-RPE), optic nerve (ON), and iris-ciliary body (I-CB) were analyzed by LC-MS/MS to quantify test article concentrations. The lower limit of quantitation (LLOQ) in plasma and vitreous humor was 1.0 ng/mL. The LLOQ was 6.0 ng/g in retina, Choroid-RPE, and I-CB and the optic nerve LLOQ was 15 ng/g, assuming tissue density of 1 g/mL where relevant.
Study design including group designation and dose levels are outlined in Table 18.

[1] = Dutch Belted, rabbit, vitreous humor, po, 15 mg/kg, Vitreous Humor, DB rabbit, 15 mg/kg BID, Day 15
[2] = Dutch Belted, rabbit, vitreous humor, po, 15 mg/kg, Vitreous Humor, DB rabbit, 15 mg/kg single dose, Day 1
[3] = plasma, DB rabbit, 15 mg/kg BID, Day 15
[4] = plasma, DB rabbit, 15 mg/kg single dose, Day 1
[5] = retina, DB rabbit, 15 mg/kg BID, Day 15
[6] = retina, DB rabbit, 15 mg/kg single dose, Day 1

For `CC(=O)c1nn(CC(=O)N2C[C@H](F)C[C@H]2C(=O)Nc2cccc(Br)n2)c2ccc(-c3cnc(C)nc3)cc12` [Compound 1, (2S,4R)-1-(2-(3-Acetyl-5-(2-methylpyrimidin-5-yl)-1H-indazol-1-yl)acetyl)-N-(6-bromopyridin-2-yl)-4-fluoropyrrolidine-2-carboxamide], the concentration at 0 h (Dutch Belted, rabbit, retina, po, 15 mg/kg, DB rabbit, 15 mg/kg BID oral, read-out: Mean retina concentration) was 114 ng/g, the concentration at 1 h (Dutch Belted, rabbit, retina, po, 15 mg/kg, DB rabbit, 15 mg/kg BID oral, Day 15, 1 h, read-out: Mean retina concentration) was 576 ng/g and the concentration at 6 h (Dutch Belted, rabbit, retina, po, 15 mg/kg, DB rabbit, 15 mg/kg BID oral, Day 15, 6 h, read-out: Mean retina concentration) was 237 ng/g. The concentration at 24 h (Dutch Belted, rabbit, retina, po, 15 mg/kg, DB rabbit, 15 mg/kg BID oral, Day 15, 24 h, read-out: Mean retina concentration) was 74.3 ng/g, the concentration at 96 h (Dutch Belted, rabbit, retina, po, 15 mg/kg, DB rabbit, 15 mg/kg BID oral, Day 15, 96 h, read-out: Mean retina concentration) was 28.1 ng/g and the concentration at 168 h (Dutch Belted, rabbit, retina, po, 15 mg/kg, DB rabbit, 15 mg/kg BID oral, Day 15, 168 h, read-out: Mean retina concentration) was 36.5 ng/g. For the same molecule, the concentration at 240 h (Dutch Belted, rabbit, retina, po, 15 mg/kg, DB rabbit, 15 mg/kg BID oral, Day 15, 240 h, read-out: Mean retina concentration) was 25.3 ng/g, the concentration at 1 h (Dutch Belted, rabbit, retina, po, 15 mg/kg, DB rabbit, 15 mg/kg single oral dose, Day 1, 1 h, read-out: Mean retina concentration) was 145 ng/g and the concentration at 6 h (Dutch Belted, rabbit, retina, po, 15 mg/kg, DB rabbit, 15 mg/kg single oral dose, Day 1, 6 h, read-out: Mean retina concentration) was 29.6 ng/g. The concentration at 24 h (Dutch Belted, rabbit, retina, po, 15 mg/kg, DB rabbit, 15 mg/kg single oral dose, Day 1, 24 h, read-out: Mean retina concentration) was 24.7 ng/g, the MRT last (Dutch Belted, rabbit, retina, po, 15 mg/kg, retina, DB rabbit, 15 mg/kg BID, Day 15) was 71 h and the concentration at 0 h (Dutch Belted, rabbit, vitreous humor, po, 15 mg/kg, DB rabbit, 15 mg/kg BID oral, read-out: Mean Vitreous Humor concentration) was 3.27 ng/mL. The concentration at 1 h (Dutch Belted, rabbit, vitreous humor, po, 15 mg/kg, DB rabbit, 15 mg/kg BID oral, Day 15, 1 h, read-out: Mean Vitreous Humor concentration) was 15.4 ng/mL, the concentration at 6 h (Dutch Belted, rabbit, vitreous humor, po, 15 mg/kg, DB rabbit, 15 mg/kg BID oral, Day 15, 6 h, read-out: Mean Vitreous Humor concentration) was 6.45 ng/mL and the concentration at 1 h (Dutch Belted, rabbit, vitreous humor, po, 15 mg/kg, DB rabbit, 15 mg/kg single oral dose, Day 1, 1 h, read-out: Mean Vitreous Humor concentration) was 7.26 ng/mL. For the same molecule, the concentration at 6 h (Dutch Belted, rabbit, vitreous humor, po, 15 mg/kg, DB rabbit, 15 mg/kg single oral dose, Day 1, 6 h, read-out: Mean Vitreous Humor concentration) was 3.66 ng/mL, the AUC(0-t) [1] was 64 ng·h/mL and the MRT last [1] was 2.23 h. It also gave a Cmax (Dutch Belted, rabbit, vitreous humor, po, 15 mg/kg, Vitreous Humor, DB rabbit, 15 mg/kg BID, Day 15, read-out: Cmax) of 15.4 ng/mL, an AUC(0-t) [2] of 30.9 ng·h/mL and an MRT last [2] of 2.48 h. The Cmax (Dutch Belted, rabbit, vitreous humor, po, 15 mg/kg, Vitreous Humor, DB rabbit, 15 mg/kg single dose, Day 1, read-out: Cmax) was 7.26 ng/mL, the Tlast (Iris-Ciliary Body, DB rabbit, 15 mg/kg BID, Day 15) was 240 h and the Tlast (Iris-Ciliary Body, DB rabbit, 15 mg/kg single dose, Day 1) was 240 h. For the same molecule, the Tlast (Vitreous Humor, DB rabbit, 15 mg/kg BID, Day 15) was 6 h, the Tlast (Vitreous Humor, DB rabbit, 15 mg/kg single dose, Day 1) was 6 h and the AUClast [3] was 3990 ng·h/mL. The Cmax [3] was 845 ng/mL, the MRTlast [3] was 6.51 h and the Tlast [3] was 96 h. It also gave an AUClast [4] of 1570 ng·h/mL, a Cmax [4] of 318 ng/mL and an MRTlast [4] of 5.58 h. For the same molecule, the Tlast [4] was 24 h, the “C-RPE drug concentration at least 10 days following the last oral administration” value (rabbit, 15 mg/kg BID) was 340 ng/mL and the Cmax [5] was 576 ng/m. It also gave a Tlast [5] of 240 h, a Cmax [6] of 145 ng/m and an MRTlast [6] of 7.83 h. The Tlast [6] was 24 h.
